Results on two compounds are retold here after ChEMBL document CHEMBL3351915 (Bioorg Med Chem Lett, 2015).

A value given as a limit tells only on which side of the number the result lay.

In data set [1] the target is T1, MDR1 (P-gp, ABCB1) (Homo sapiens, UniProt P08183). As to the kind of experiment: Inhibition of human recombinant MDR1 in cell membrane fraction preincubated for 5 mins at 0.1 uM measured after 40 mins by Pgp-Glo luciferase assay. In kind it is cell-based.
Data set [2] deals with T1, MDR1 (P-gp, ABCB1). As to the kind of experiment: Inhibition of human recombinant MDR1 in cell membrane fraction preincubated for 5 mins at 10 uM measured after 40 mins by Pgp-Glo luciferase assay. The data set is classed as cell-based.
Data set [3] concerns the target T1, MDR1 (P-gp, ABCB1). As to the kind of experiment: Inhibition of human recombinant MDR1 in cell membrane fraction preincubated for 5 mins at 1 uM measured after 40 mins by Pgp-Glo luciferase assay. In kind it is cell-based.
A further data set relates to Plasma. Put plainly: Total steady state plasma concentration in Sprague-Dawley rat at 5 mg/kg, po. In kind it is ADME, organism-based. Details: dose 5 mg/kg, route oral. To be noted: in vivo.
Data set [4] has as its target T1, MDR1 (P-gp, ABCB1). As to the kind of experiment: Inhibition of human recombinant MDR1 in cell membrane fraction preincubated for 5 mins at 100 uM measured after 40 mins by Pgp-Glo luciferase assay. The data set is classed as cell-based.
In data set [5] the target is T1, MDR1 (P-gp, ABCB1). Put plainly: Inhibition of human recombinant MDR1 in cell membrane fraction preincubated for 5 mins at 0.01 uM measured after 40 mins by Pgp-Glo luciferase assay. In kind it is cell-based.
Data set [6] can be described thus: Fraction unbound in Sprague-Dawley rat at 5 mg/kg, po. The note with it: in vivo.
Data set [7] in a line: Oral bioavailability in human. The note with it: in vivo.
Data set [8] deals with ATP-dependent translocase ABCB1 (Homo sapiens, UniProt P08183). As to the kind of experiment: Inhibition of human recombinant MDR1 in cell membrane fraction preincubated for 5 mins measured after 40 mins by Pgp-Glo luciferase assay. In kind it is cell-based.
Data set [9] is described as follows: Absolute bioavailability in dog. In kind it is ADME, organism-based, Canis lupus familiaris. The note with it: in vivo.
For data set [10], the target named is T2, CYP3A4 (Homo sapiens, UniProt P08684). As to the kind of experiment: Inhibition of human recombinant CYP3A4 expressed in insect cell microsomes preincubated for 10 mins at 10 uM by fluorescence assay. The note with it: recombinant enzyme.
Data set [11] deals with T2, CYP3A4. As to the kind of experiment: Inhibition of human recombinant CYP3A4 expressed in insect cell microsomes preincubated for 10 mins at 0.1 uM by fluorescence assay. The note with it: recombinant enzyme.
In data set [12] the target is T2, CYP3A4. As to the kind of experiment: Inhibition of human recombinant CYP3A4 expressed in insect cell microsomes preincubated for 10 mins at 1 uM by fluorescence assay. The note with it: recombinant enzyme.

T2 sequence (P08684 whole entry): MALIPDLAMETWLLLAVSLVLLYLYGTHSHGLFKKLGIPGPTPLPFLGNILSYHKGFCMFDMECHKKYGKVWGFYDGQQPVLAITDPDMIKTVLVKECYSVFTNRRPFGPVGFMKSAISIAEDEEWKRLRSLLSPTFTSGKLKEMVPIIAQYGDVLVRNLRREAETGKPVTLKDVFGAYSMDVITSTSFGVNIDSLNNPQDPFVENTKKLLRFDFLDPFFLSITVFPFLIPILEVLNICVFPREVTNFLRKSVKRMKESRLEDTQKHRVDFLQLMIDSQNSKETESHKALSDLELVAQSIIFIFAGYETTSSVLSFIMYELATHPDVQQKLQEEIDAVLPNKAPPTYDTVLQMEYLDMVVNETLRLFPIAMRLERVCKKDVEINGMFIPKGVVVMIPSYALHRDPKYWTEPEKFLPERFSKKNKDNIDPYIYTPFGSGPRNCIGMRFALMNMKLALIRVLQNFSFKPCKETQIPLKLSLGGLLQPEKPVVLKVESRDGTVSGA
T1 sequence (P08183 whole entry): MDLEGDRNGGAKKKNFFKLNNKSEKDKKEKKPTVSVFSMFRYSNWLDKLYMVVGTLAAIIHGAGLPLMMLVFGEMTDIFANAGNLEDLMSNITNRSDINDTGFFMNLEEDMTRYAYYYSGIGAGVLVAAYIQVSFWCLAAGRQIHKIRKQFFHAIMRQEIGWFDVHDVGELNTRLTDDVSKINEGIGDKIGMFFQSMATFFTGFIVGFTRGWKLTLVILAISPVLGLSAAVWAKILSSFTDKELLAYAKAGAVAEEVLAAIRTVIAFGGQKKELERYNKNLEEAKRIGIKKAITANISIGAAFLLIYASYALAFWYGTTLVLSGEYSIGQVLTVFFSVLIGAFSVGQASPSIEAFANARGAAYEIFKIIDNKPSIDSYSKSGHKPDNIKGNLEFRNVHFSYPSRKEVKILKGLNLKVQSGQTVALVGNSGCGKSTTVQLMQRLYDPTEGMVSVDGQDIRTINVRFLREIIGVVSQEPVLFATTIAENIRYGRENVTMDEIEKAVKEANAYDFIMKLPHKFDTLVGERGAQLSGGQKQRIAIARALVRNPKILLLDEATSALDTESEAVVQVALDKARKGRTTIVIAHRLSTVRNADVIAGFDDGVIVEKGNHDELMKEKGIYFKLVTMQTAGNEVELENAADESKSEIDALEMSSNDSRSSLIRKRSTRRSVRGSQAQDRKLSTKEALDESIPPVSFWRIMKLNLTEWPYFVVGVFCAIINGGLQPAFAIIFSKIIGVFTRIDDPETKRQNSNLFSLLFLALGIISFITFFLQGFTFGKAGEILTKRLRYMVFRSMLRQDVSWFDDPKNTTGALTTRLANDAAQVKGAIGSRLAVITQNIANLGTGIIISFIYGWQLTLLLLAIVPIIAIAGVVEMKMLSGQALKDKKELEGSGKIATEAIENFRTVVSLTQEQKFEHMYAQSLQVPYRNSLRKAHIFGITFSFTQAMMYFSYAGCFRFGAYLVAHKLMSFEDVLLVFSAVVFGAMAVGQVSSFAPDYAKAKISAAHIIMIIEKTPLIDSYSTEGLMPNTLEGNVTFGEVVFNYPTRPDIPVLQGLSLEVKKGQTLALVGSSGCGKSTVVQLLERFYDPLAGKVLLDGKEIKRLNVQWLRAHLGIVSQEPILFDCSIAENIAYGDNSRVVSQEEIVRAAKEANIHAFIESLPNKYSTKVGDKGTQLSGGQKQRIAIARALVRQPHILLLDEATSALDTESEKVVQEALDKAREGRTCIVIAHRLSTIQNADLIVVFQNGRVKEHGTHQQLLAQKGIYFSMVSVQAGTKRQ
Chain of ATP-dependent translocase ABCB1 (P08183 whole entry): as above

The term inhibition denotes the percentage by which the read-out fell short of the control. The term fraction unbound denotes free concentration divided by total concentration. Read a low fraction unbound as little free substance. The term bioavailability denotes dose-corrected exposure relative to a reference, in per cent. By IC50 is commonly meant the midpoint of a concentration-inhibition curve. As for `COc1cc2c(cc1OC)C(=O)C(CC1CCN(Cc3ccccc3)CC1)C2` (stereo not drawn) [DONEPEZIL], on MDR1 (P-gp, ABCB1) [1], the inhibition at 40 min, 0.1 µM was less than 15%. The inhibition at 40 min, 10 µM on MDR1 (P-gp, ABCB1) [2] was 23.5%. In addition, the inhibition at 40 min, 1 µM at MDR1 (P-gp, ABCB1) [3] was determined as 17.8%. Moreover, the concentration with Plasma worked out at 60 nM. The inhibition at 40 min, 100 µM at MDR1 (P-gp, ABCB1) [4] worked out at 76%. The inhibition at 40 min, 0.01 µM at MDR1 (P-gp, ABCB1) [5] is less than 15%. This compound also came in with a fraction unbound in data set [6] of 0.04. Further, the bioavailability in data set [7] was 92%; in data set [9], 50%. Besides, the IC50 in data set [8] was determined as 34.9 µM.
With `CC(=O)N1CCN(c2ccc(OCC3COC(Cn4ccnc4)(c4ccc(Cl)cc4Cl)O3)cc2)CC1` (stereo not drawn) [KETOCONAZOLE], the inhibition at 10 µM on CYP3A4 [10] came to 92.3%. At CYP3A4 [11], the inhibition at 0.1 µM turned out to be 33.9%. Moreover, on CYP3A4 [12], the inhibition at 1 µM was determined as 87.2%.
